Measured values from ChEMBL document CHEMBL3596190, “Non-classical -carbonic anhydrase inhibitors-towards novel anti-mycobacterials” (Medchemcomm, 2014).
In brackets after ≈: the same amount, converted by molar mass. Activity calls are given as the source filed them. The rule behind the calls is not given here.

Assays:
[1] = system: Mycobacterium tuberculosis; assay: Effect on quaternary structure of un-tagged Mycobacterium tuberculosis beta-carbonic anhydrase Rv3588c at pH 6.0 by size exclusion chromatography
[2] = system: Mycobacterium tuberculosis; assay: Effect on quaternary structure of un-tagged Mycobacterium tuberculosis beta-carbonic anhydrase Rv3588c at pH 8.5 by size exclusion chromatography
BL21-AI [3] = assay: Inhibition of His6-tagged Mycobacterium tuberculosis Rv3588c expressed in Escherichia coli BL21-AI cells assessed as increase in Hill coefficient at 25 uM by stopped flow CO2 hydration assay based Michaelis-Menten analysis
[4] = Inhibition of His6-tagged Mycobacterium tuberculosis Rv3588c expressed in Escherichia coli BL21-AI cells by stopped flow CO2 hydration assay based Michaelis-Menten analysis; format: cell-based
[5] = system: Mycobacterium tuberculosis; assay: Growth inhibition of Mycobacterium tuberculosis H37Ra incubated for 7 days by resazurin dye based fluorescence assay; format: functional; settings: 168 h
[6] = biological target: T1, Beta-carbonic anhydrase 1 (Mycobacterium tuberculosis) (UniProt P9WPJ7); assay: Binding affinity to His6-tagged Mycobacterium tuberculosis Rv1284 expressed in Escherichia coli BL21-AI cells assessed as […] in melting temperature at 250 uM by SYPRO orange dye based differential scanning fluorimetry
T1 sequence (whole entry): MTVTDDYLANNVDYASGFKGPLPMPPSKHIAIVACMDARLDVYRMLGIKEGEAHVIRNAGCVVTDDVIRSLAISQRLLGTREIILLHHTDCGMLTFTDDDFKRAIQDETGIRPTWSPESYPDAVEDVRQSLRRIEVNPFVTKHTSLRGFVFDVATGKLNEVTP

BL21-AI [7] = settings: Mycobacterium tuberculosis, at 25 µM
Description: Inhibition of His6-tagged Mycobacterium tuberculosis Rv3588c expressed in Escherichia coli BL21-AI cells assessed as reduction in Vmax at 25 uM by stopped flow CO2 hydration assay based Michaelis-Menten analysis

Row | Compound | Activity [1] | Activity [2] | inhibition (BL21-AI [3]) | Ki [4] [µM] | MIC90 [5] [µM] | deltaTm [6] [K] | inhibition (BL21-AI [7])
1 | COc1c(Br)cc(C/C(=N\O)C(=O)NCCCC(=O)N(C)CCCCN(C)CCCNC(=O)/C(Cc2cc(Br)c(OC)c(Br)c2)=N/O)cc1Br [SPERMATINAMINE] | inactive | inactive | Active | 23 | 6.3 (≈ 6.03 µg/mL) | 1.2 | 
2 | C=C1CC[C@@H](C/C=C(\C)CC/C=C(/CCC=C(C)C)C(=O)O)C(C)(C)[C@H]1CC/C(C)=C/C(=O)O | inactive | inactive | Active | 10 | > 50 | 5.4 | Active
3 | N#C[S-].[Na+] [THIOCYANATE SODIUM] |  |  |  | 8 |  |  | Active
4 | COc1c(Br)cc(/C=C/C(=O)NCCCNCCCCNCCCNC(=O)/C=C/c2cc(Br)c(OC)c(Br)c2)cc1Br [IANTHELLIFORMISAMINE C] | inactive | inactive | Active | 16 | 12.5 (≈ 10.5 µg/mL) | 1 | Active
